We go through two molecules from patent US20220370416A1, “COMPOUNDS AND METHODS FOR TARGETED DEGRADATION OF KRAS” (Arvinas Operations, Inc., priority 2020, published 2022).

In test [1] the target is T1, KRAS^G12C (Homo sapiens, UniProt P01116, G12C). Description: KRAS^G12C degradation in heterozygous H358 cells. It is filed as cell-based. Set-up: endogenous in cells; host or cells: NCI-H358. To be noted: heterozygous H358 cells (FIG. 4A).
The target in test [2] is T1, KRAS^G12C. The test is described as follows: KRAS^G12C engagement and degradation by immunoblot in NCI-H2030 cells. Set-up: MRTX849-VHL bifunctional compounds engage and degrade endogenous KRAS^G12C in NCI-H2030 cells; endogenous in cells; host or cells: NCI-H2030, NCI-H358, MIA PaCa-2, SW1573, NCI-H23. To be noted: for KRAS, two-way ANOVA significance vs DMSO: FIG. 9A. The class given is cell-based. On the procedure:
NCI-H2030 (CRL-5914), MIA PaCa-2 (CRL-1420), NCI-H23 (CRL-5800), NCI-H358 (CRL-5807), and HCT-116 (CCL-247) cells were obtained from ATCC, expanded immediately, and frozen down. Vials were thawed and used within 20 passages. SW1573 cells were a gift from Arvinas and were handled in the same manner. NCI-H2030, NCI-H23, and NCI-H358 were cultured in RPMI (ATCC30-2001) supplemented with 10% FBS (Biological Industries; cat. no. S1480) and 1% Penicillin-Streptomycin (ThermoFisher; cat. no. 15140122). HCT-116 cells were maintained in high glucose DMEM (ThermoFisher; cat. no. 11965084) supplemented as above. MIA PaCa-2 cells were cultured in high glucose DMEM supplemented with 10% FBS, 2.5% horse serum (ThermoFisher; cat. no. 26050-088; lot 2109875), and 1% Penicillin-Streptomycin. SW1573 cells were maintained in DMEM/F12 Nutrient Mix with GlutaMAX supplement (ThermoFisher; cat. no. 10565018) with 10% FBS and 1% Penicillin-Streptomycin added. DPBS (ThermoFisher; cat. no. 14190250) was used to wash cells and 0.25% Trypsin-EDTA (ThermoFisher; cat. no. […]) was used to detach cells for passaging. […] The VHL ligand was generously provided by Arvinas.
Between 2.5×10^5 and 6.0×10^5 cells were seeded into 6-well plates (Corning; cat. no. 353046). The next day, media was removed and cells were treated with 2.5 μM LC-2 for 1, 2, 4, 8, 12, or 24 hours. […] For 24-hour time course experiments, cells were treated at the indicated times and concurrently lysed in RIPA buffer supplemented as described previously. For longer time course experiments and time courses in which cells were treated with LC-2 or LC-2 Epimer, cells were concurrently treated with either compound, then lysed by scraping in RIPA buffer at the indicated time points.
Between 2.5×10^5 and 5.0×10^5 cells were seeded into 6-well plates. The next day cells were pretreated with DMSO, 500 μM or 1 mM VHL ligand, 1 μM epoxomicin, 1 μM […], or 100 nM […] bafilomycin A1 for 1 hour. Media was then removed and cells were treated with DMSO, 2.5 μM LC-2 plus DMSO, 2.5 μM LC-2 Epimer plus DMSO, or co-treated with 2.5 μM LC-2 and the corresponding competitor/inhibitor. H2030 cells were treated for 4 hours and H23 cells were treated for 24 hours, after which cells were lysed by scraping in RIPA buffer supplemented as described previously.
Cell lysates were clarified at 21000×g for 15 mins at 4° C. Protein levels were quantified using a 50:1 mixture of bicinchoninic acid solution (Millipore Sigma; cat. no. B9643) and 4% (w/v) copper(II) sulfate solution (Millipore Sigma; cat. no. C2284) incubated at 37° C. for 30 mins. Absorbance values at 560 nm were read on an EnVision 2101 Multilabel Reader (PerkinElmer). Proteins were separated using 26 well Criterion TGX precast 4-15% (cat. no. 5671085) or 8-16% (cat. no. 5671105) gradient midi gels. After separation, proteins were transferred to nitrocellulose or PVDF membranes at 76 V for 2 hours at 4° C. Blots were then blocked in 5% milk in tris-buffered saline with Tween-20 (TBST; 20 mM Tris, 150 mM NaCl, 0.02% Tween-20). After blocking, blots were incubated in primary antibody overnight (12-18 hours) at 4° C. or for 2 hours at room temperature with mild agitation at the manufacturer's indicated dilution in either 5% milk or 5% BSA in TBST. Blots were then washed thrice with TBST for 5 mins at room temperature. After washing, blots were incubated with 1:5,000-1:10,000 of donkey anti-rabbit (GE Life Sciences; NA934) or sheep anti-mouse (GE Life Sciences; NA931) secondary antibody diluted in 5% milk for 1 hour at room temperature with mild agitation. Blots were again washed thrice with TBST for 5 mins. Chemiluminescent signal was generated using Amersham ECL Prime Western Blotting Detection Reagant (GE Life Sciences; cat. no. RPN2232) or SuperSignal West Femto Maximum Sensitivity Substrate (ThermoFisher; cat. no. 34095). Images were obtained using a Bio-Rad ChemiDoc Imager.

The target of test [3] is T1, KRAS^G12C. The test is described as follows: KRAS^G12C engagement and degradation in homozygous, MRTX849 resistant SW1573 cells. On the set-up: MRTX849-VHL bifunctional compounds engage and degrade endogenous KRAS^G12C in NCI-H2030 cells; endogenous in cells; host or cells: NCI-H2030, NCI-H358, MIA PaCa-2, SW1573, NCI-H23. The class given is cell-based.
For test [4], the target named is T1, KRAS^G12C. The test is described as follows: Engagement and degradation of endogenous KRAS^G12C in NCI-H2030 cells (blot quantitation). On the set-up: MRTX849-VHL bifunctional compounds engage and degrade endogenous KRAS^G12C in NCI-H2030 cells; endogenous in cells; host or cells: NCI-H2030. It is filed as cell-based.
The next test concerns pErk. To be noted: MIA PaCa-2, 2.5 μM LC-2, 6 and 24 hours.
Setting [5] is: SW1573 cells, 72 hour time course (FIG. 8).
[6] abbreviates: NCI-H2030, homozygous KRAS^G12C.
Where [7] appears, read: SW1573 cells, time course (FIG. 6B).

Experimental for pErk: Cell lysates were clarified at 21000×g for 15 mins at 4° C. Protein levels were quantified using a 50:1 mixture of bicinchoninic acid solution (Millipore Sigma; cat. no. B9643) and 4% (w/v) copper(II) sulfate solution (Millipore Sigma; cat. no. C2284) incubated at 37° C. for 30 mins. Absorbance values at 560 nm were read on an EnVision 2101 Multilabel Reader (PerkinElmer). Proteins were separated using 26 well Criterion TGX precast 4-15% (cat. no. 5671085) or 8-16% (cat. no. 5671105) gradient midi gels. After separation, proteins were transferred to nitrocellulose or PVDF membranes at 76 V for 2 hours at 4° C. Blots were then blocked in 5% milk in tris-buffered saline with Tween-20 (TBST; 20 mM Tris, 150 mM NaCl, 0.02% Tween-20). […]

With `C=C(F)C(=O)N1CCN(c2nc(OC[C@@H]3CCCN3CCCOCCC(=O)N[C@H](C(=O)N3C[C@@H](O)C[C@H]3C(=O)NCc3ccc(-c4scnc4C)cc3)C(C)(C)C)nc3c2CCN(c2cccc4cccc(Cl)c24)C3)C[C@@H]1CC#N` [LC-2 Epimer, (2S,4S)-1-((S)-2-(3-(3-((S)-2-(((7-(8-chloronaphthalen-1-yl)-4-((S)-3-(cyanomethyl)-4-(2-fluoroacryloyl)piperazin-1-yl)-5,6,7,8-tetrahydropyrido[3,4-d]pyrimidin-2-yl)oxy)methyl)pyrrolidin-1-yl)propoxy)propanamido)-3,3-dimethylbutanoyl)-4-hydroxy-N-(4-(4-methylthiazol-5-yl)benzyl)pyrrolidine-2-carboxamide], the results for the “induction of KRAS^G12C degradation” value at KRAS^G12C [1] and on KRAS^G12C [4] (2.5 μM (FIG. 5A)) were “not” and “does not induce KRAS^G12C degradation”, respectively. Moreover, the “earliest time KRAS^G12C binding seen” value at KRAS^G12C [2] (NCI-H2030, 2.5 μM) is 1 h. For the same molecule, the “KRAS engagement versus degradation” value at KRAS^G12C [2] (NCI-H2030, 2.5 μM, 4 hours) is reported as “only KRAS engagement was observed”. Further, the “change of KRAS^G12C level over 72 hours” value at KRAS^G12C [3] (setting [5]) is “No change is observed”.

As for `C=C(F)C(=O)N1CCN(c2nc(OC[C@@H]3CCCN3CCCOCCC(=O)N[C@H](C(=O)N3C[C@H](O)C[C@H]3C(=O)NCc3ccc(-c4scnc4C)cc3)C(C)(C)C)nc3c2CCN(c2cccc4cccc(Cl)c24)C3)C[C@@H]1CC#N` [LC-2, (2S,4R)-1-((S)-2-(3-(3-((S)-2-(((7-(8-chloronaphthalen-1-yl)-4-((S)-3-(cyanomethyl)-4-(2-fluoroacryloyl)piperazin-1-yl)-5,6,7,8-tetrahydropyrido[3,4-d]pyrimidin-2-yl)oxy)methyl)pyrrolidin-1-yl)propoxy)propanamido)-3,3-dimethylbutanoyl)-4-hydroxy-N-(4-(4-methylthiazol-5-yl)benzyl)pyrrolidine-2-carboxamide], the “induction of KRAS^G12C degradation” value at KRAS^G12C [1] is listed as “induces KRAS^G12C degradation”; at KRAS^G12C [3] (homozygous, MRTX849 resistant SW1573 cells (FIG. 4C)), “induces KRAS^G12C degradation”. In addition, the pErk result in the test with pErk is “suppressed”. Also, the Dmax at KRAS^G12C [2] (NCI-H2030) and at KRAS^G12C [2] (setting [6]) was over 75% in each case. The “KRAS, two-way ANOVA significance vs DMSO” value at KRAS^G12C [2] (NCI-H2030, 0.1 μM) was “N.S”; on KRAS^G12C [2] (NCI-H2030, 0.25 μM) it was “N.S”. Moreover, the “earliest time KRAS^G12C binding seen” value at KRAS^G12C [2] (NCI-H2030, 2.5 μM) amounted to 1 h. The “time to maximum degradation” value on KRAS^G12C [2] (NCI-H2030, 2.5 μM) was at most 8 h. The KRAS degradation on KRAS^G12C [2] (NCI-H2030, 2.5 μM, 4 hours) is on record as about 65%. Besides, the “persistence of maximum degradation” value on KRAS^G12C [2] (NCI-H2030, 2.5 μM, 24 hour time course) is given as “persisted up to 24 hours”. Further, the DC50 (commonly the concentration at which degradation of the target reaches its halfway point) at KRAS^G12C [2] (setting [6]) is 0.59 ± 0.2 µM. For the same molecule, at KRAS^G12C [2] (NCI-H2030 cells), the “lowest concentration inducing maximal degradation of endogenous KRAS^G12C” value was found to be 2.5 µM. In addition, the “KRAS^G12C degradation maintained for” value on KRAS^G12C [3] (setting [5]) came out at 72 h. Also, the “time to onset of KRAS^G12C degradation” value at KRAS^G12C [3] (setting [5]) was at most 6 h. Besides, the “maximal KRAS^G12C degradation maintained up to” value on KRAS^G12C [3] (setting [7]) and on KRAS^G12C [4] (time course (FIG. 6A)) was 24 h in each case. Further, the entries for the “time to maximal KRAS^G12C degradation” value at KRAS^G12C [3] (setting [7]) and on KRAS^G12C [4] (time course (FIG. 6A)) were 12 h and at most 8 h, respectively. Besides, the “rescue of induced KRAS^G12C degradation (mechanism)” value on KRAS^G12C [4] (VHL ligand competition, epoxomicin, MLN924 (FIG. 5A)) was “rescued by VHL ligand competition, proteasome inhibition with epoxomicin (Epox), and neddylation inhibition with MLN924 (MLN)”. Besides, the “degradation of KRAS^G12C” value at KRAS^G12C [4] (dose response (FIG. 2C)) is “degrades KRAS^G12C in a dose dependent manner”.
